We go through 1 molecule from patent US20260144769A1, “4-PHENYLBUTYRATE RESTORED GABA UPTAKE AND REDUCED SEIZURES IN SLC6A1 VARIANT-MEDIATED DISORDERS” (Vanderbilt University, priority 2022, published 2026).

Assay [1] relates to SLC6A1 gene expression. Briefly: RT-qPCR of SLC6A1 gene expression, mouse whole-brain tissue. The class given is in vivo. Particulars: wild-type and SLC6A1^+/S295L mice; PBA for 7 days; whole-brain RNA. An excerpt:
FIGS. 14A-B show RT-qPCR data from a cohort of nine wild-type mice (FIG. 14A) and seven SLC6A1^+/S295L mice (FIG. 14B). […] Total RNA was extracted from mouse whole-brain tissue.
(In general: Quantitative PCR measures a nucleic acid by following its amplification.)

Assay [2] has as its system GAT-1. Briefly: GAT-1 protein expression (SDS-PAGE, anti-GAT-1 blot), patient human astrocytes. The class given is cell-based. Particulars: PBA 2 mM. As to the method:
FIGS. 6A-B show human patient corrected (isogenic control, Corr) or uncorrected patient (Pat) astrocytes at day 30-35 after differentiation from iPSCs were co-transfected with the endoplasmic reticulum (ER) marker ER^CFP in combination with the wildtype or the mutant GAT-1^YFP cDNAs (0.5 μg: 0.5 μg per a 35 mm^2 dish) for 48 hrs before confocal microscopy analysis. Confocal images were acquired in live astrocytes under 63× objective with zoom under 2.5×. […] FIG. 6B represents the ER overlapping signal of GAT-1^YFP analyzed by Metamorph. […] Membranes were blotted with a rabbit polyclonal anti-GAT-1 antibody (FIG. 6C). The lysates of Chinese hamster ovary (CHO) cells were used as control. […] Values were expressed as mean±S.E.M.). […]
Data were expressed as mean±SEM. Proteins were quantified by Odyssey software and data were normalized to loading controls and then to the wildtype subunit protein, which was arbitrarily taken as 1 in each experiment. Fluorescence intensities from confocal microscopy experiments were determined using MetaMorph imaging software, and the measurements were carried out in ImageJ. […]

Assay [3] addresses GAT-1 L460R (Rattus norvegicus, UniProt P23978, L460R). Briefly: 3H GABA uptake, HEK293T, mutant cDNA alone ("homozygous"). The settings on record: PBA 2 mM, 24 hrs. The arrangement: The coding region of rGAT-1 was inserted into pEYFP-C1 (Clontech, Palo Alto, CA); expressed in transfected cells; host or cells: HEK293T cells. The class given is cell-based. As to the method: GABA uptake activity was measured by the high-throughput 3H radio-labeling GABA uptake on a liquid scintillator with QuantaSmart. […] HEK293T cells were transfected with the wildtype or the mutant GAT-1^YFP cDNAs alone for 48 hr. […] HEK293T cells were transfected with the wildtype GAT-1^YFP alone or in mixture of the wildtype or the mutant cDNAs for 48 hr. In the mixed condition, the ratio of the wildtype GAT-1 with pcDNA or the mutant cDNAs are 1:1 with the total cDNA amount of 0.5 μg. […] Both wt and the mutant were normalized to its own DMSO treated conditions. 966 stands for the wildtype treated with CI-966 (50 μM) while 711 stands for NNC-711 (35 μM). (N=4-7 different transfections. In FIG. 4A and FIG. 4B, *P<0.05, **P<0.01, ***p<0.001 vs. wt 0. In FIG. C and FIG. 4D, *P<0.05, **P<0.01, ***p<0.001 vs. its own DMSO treated. In FIG. 4C, ns stands for no significance. One-way analysis of variance (ANOVA) and Newman-Keuls test. Values were expressed as mean±S.E.M.
The plasmid cDNA encoding enhanced yellow fluorescent protein (EYFP)-tagged rat GAT-1 has been previously described. […]
Briefly, cells were cultured in […] dishes for 3 days before the GABA uptake experiment in DMEM with 10% fetal bovine serum and 1% penicillin/streptomycin. […] Glacial acetic acid was added, and lysates were then determined on a liquid scintillator with QuantaSmart. […]

Each structure is given as a SMILES string.

`O=C(O)CCCc1ccccc1` [PBA, 4-phenylbutyric acid]: the “SLC6A1 gene expression, treated vs. untreated mice” value in assay [1] is listed as “no significant difference”. In addition, the “GAT-1 expression normalized to its own genotype DMSO treated” value in assay [2] (24 hrs) is 1.39±0.046. For the same molecule, the “total GAT-1 protein of the patient astrocytes as % of the corrected” value in assay [2] (24 hrs (52.2% untreated)) is recorded as 73.2%. In addition, the “GABA uptake normalized to its own DMSO treated condition” value in assay [3] is given as 1.14±0.07.
